Test results: patent US20230381192A1, “METHODS FOR CONTROLLING AND PREDICTING RECOVERY AFTER NMBA ADMINISTRATION” (Cornell University, priority 2020, published 2023)

Tests used:
[1] = Predicted spontaneous recovery after RP2000 in patients under inhaled anesthesia; format: in vivo, human; settings: doses up to 2.5-3× the ED95
Excerpt: While not wishing to be bound by theory, it is believed that the highly reproducible half-life is due to degradation of RP1000 through cysteine adduction (e.g., by reaction with glutathione). The advantages imparted by the understanding of the pharmacodynamics of RP1000 include, but are not limited to, that the level of recovery of function may be easily predicted in human patients. […] This disclosure therefore reflects this prediction.

Rhesus monkeys = experiment: Spontaneous recovery from NMB (twitch 5% to 95% of baseline) after bolus or infusion in Rhesus monkeys under isoflurane; format: in vivo, Rhesus monkey; settings: for 5%-95% Interval: mean ± SD
Description: Rhesus monkeys under isoflurane anesthesia were administered a bolus dose of either RP2000 or RP1000 at a dose equal to 1× to 10× the ED95 in Rhesus monkeys of the administered compound (ED95,Rp1000=0.040 mg/kg; ED95,RP2000=0.053 mg/kg). Twitch (0.15 Hz) and TOF (2 Hz×2 seconds) were recorded throughout the 6 -10 hours experiments. Time to spontaneous recovery after bolus administration, characterized by recovery of twitch from 5% to 95% of baseline was measured.
Separately, continuous infusions of 20-180 minutes duration were given (to separate subjects), and after discontinuation of infusion, time to spontaneous recovery of NMB, characterized by recovery of twitch from 5% to 95% of baseline was measured.

COc1ccc(C[C@@H]2c3cc(OC)c(OC)cc3CC[N@@+]2(C)CCCOC(=O)/C=C/C(=O)OCCC[N+]2(Cc3ccc(OC)c(OC)c3)CCOCC2)cc1.[Cl-].[Cl-] [RP2000, 4-(3-(((E)-4-(3-((1R)-6,7-dimethoxy-1-(4-methoxybenzyl)-2-methyl-1,2,3 4-tetrahydro-2-isoquinolin-2-ium-2-yl)propoxy)-4-oxobut-2-enoyl)oxy)propyl)-4-(3,4-dimethoxybenzyl)morpholin-4-ium]
predictability of spontaneous recovery [1]: highly predictable
ED95 in Rhesus monkeys (Rhesus monkeys; Rhesus monkeys, isoflurane anesthesia): 0.053 mg/kg
5%-95% Interval (Rhesus monkeys; after continuous infusion of 20-180 minutes): 6.2 ± 1.4 min
5%-95% Interval (Rhesus monkeys; bolus dose 0.10 mg/kg): 6.1 ± 1.6 min
5%-95% Interval (Rhesus monkeys; bolus dose 0.20 mg/kg): 6.4 ± 1.9 min
5%-95% Interval (Rhesus monkeys; bolus dose 0.50 mg/kg): 6.7 ± 2.4 min
